Experimental data reported in PubChem BioAssay (NCI).
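Five concentrations, 48 hours, 96-well plates. The concentration for 50% growth inhibition is given as GI50. TGI is the concentration that stops growth completely.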

Columns and labels:
Test in all cases: growth of human tumour cells (NCI), 48 h
HT29 colon = system: HT29 colon
IGROV1 ovarian = system: IGROV1 ovarian
RPMI-8226 leukemia = system: RPMI-8226 leukemia
EKVX NSCLC = system: EKVX NSCLC
OVCAR-5 ovarian = system: OVCAR-5 ovarian
U251 CNS = system: U251 CNS
T-47D breast = system: T-47D breast
SK-MEL-28 melanoma = system: SK-MEL-28 melanoma
OVCAR-4 ovarian = system: OVCAR-4 ovarian
SR leukemia = system: SR leukemia
BT-549 breast = system: BT-549 breast
HCT-15 colon = system: HCT-15 colon
SN12C renal = system: SN12C renal
OVCAR-8 ovarian = system: OVCAR-8 ovarian
HL-60(TB) leukemia = system: HL-60(TB) leukemia
MOLT-4 leukemia = system: MOLT-4 leukemia
MDA-MB-435 = system: MDA-MB-435
SK-MEL-2 melanoma = system: SK-MEL-2 melanoma
M14 melanoma = system: M14 melanoma
NCI-H226 lung = system: NCI-H226 lung
HCC-2998 colon = system: HCC-2998 colon
786-0 renal = system: 786-0 renal
SK-MEL-5 melanoma = system: SK-MEL-5 melanoma
MALME-3M melanoma = system: MALME-3M melanoma
RXF 393 renal = system: RXF 393 renal
COLO 205 colon = system: COLO 205 colon
SF-268 CNS = system: SF-268 CNS
NCI-H460 lung = system: NCI-H460 lung
MDA-MB-231 breast = system: MDA-MB-231 breast
UO-31 renal = system: UO-31 renal
LOX IMVI melanoma = system: LOX IMVI melanoma
ACHN renal = system: ACHN renal
K-562 leukemia = system: K-562 leukemia
HS 578T breast = system: HS 578T breast
SF-295 CNS = system: SF-295 CNS
SNB-75 CNS = system: SNB-75 CNS
SW-620 colon = system: SW-620 colon
OVCAR-3 ovarian = system: OVCAR-3 ovarian
CCRF-CEM leukemia = system: CCRF-CEM leukemia
MCF7 breast = system: MCF7 breast
SF-539 CNS = system: SF-539 CNS
KM12 colon = system: KM12 colon
PC-3 prostate = system: PC-3 prostate
SNB-19 CNS = system: SNB-19 CNS
A498 renal = system: A498 renal
HCT-116 colon = system: HCT-116 colon
A549 NSCLC = system: A549 NSCLC
SK-OV-3 ovarian = system: SK-OV-3 ovarian
NCI-H23 lung = system: NCI-H23 lung
NCI/ADR-RES ovarian = system: NCI/ADR-RES ovarian
NCI-H522 lung = system: NCI-H522 lung
HOP-62 NSCLC = system: HOP-62 NSCLC
TK-10 renal = system: TK-10 renal
DU-145 prostate = system: DU-145 prostate
CAKI-1 renal = system: CAKI-1 renal
UACC-62 melanoma = system: UACC-62 melanoma
UACC-257 melanoma = system: UACC-257 melanoma
HOP-92 NSCLC = system: HOP-92 NSCLC

CCCCCCCC[N+](C)(CCCCCCCC)CCCCCCCC
GI50 (HT29 colon): 295 nM
TGI (HT29 colon): 1250 nM
GI50 (IGROV1 ovarian): 347 nM
TGI (IGROV1 ovarian): 1910 nM
GI50 (RPMI-8226 leukemia): 46.3 nM
TGI (RPMI-8226 leukemia): 242 nM
GI50 (EKVX NSCLC): 190 nM
TGI (EKVX NSCLC): 788 nM
GI50 (OVCAR-5 ovarian): 621 nM
TGI (OVCAR-5 ovarian): 1980 nM
GI50 (U251 CNS): 324 nM
TGI (U251 CNS): 1310 nM
GI50 (T-47D breast): 258 nM
TGI (T-47D breast): 1730 nM
GI50 (SK-MEL-28 melanoma): 528 nM
TGI (SK-MEL-28 melanoma): 1790 nM
GI50 (OVCAR-4 ovarian): 371 nM
TGI (OVCAR-4 ovarian): 1670 nM
GI50 (SR leukemia): 165 nM
TGI (SR leukemia): 408 nM
GI50 (BT-549 breast): 309 nM
TGI (BT-549 breast): 977 nM
GI50 (HCT-15 colon): 715 nM
TGI (HCT-15 colon): 2100 nM
GI50 (SN12C renal): 337 nM
TGI (SN12C renal): 1240 nM
GI50 (OVCAR-8 ovarian): 411 nM
TGI (OVCAR-8 ovarian): 1460 nM
GI50 (HL-60(TB) leukemia): 140 nM
TGI (HL-60(TB) leukemia): 366 nM
GI50 (MOLT-4 leukemia): 324 nM
TGI (MOLT-4 leukemia): 1370 nM
GI50 (MDA-MB-435): 273 nM
TGI (MDA-MB-435): 1010 nM
GI50 (SK-MEL-2 melanoma): 356 nM
TGI (SK-MEL-2 melanoma): 8810 nM
GI50 (M14 melanoma): 388 nM
TGI (M14 melanoma): 1630 nM
GI50 (NCI-H226 lung): 406 nM
TGI (NCI-H226 lung): 1490 nM
GI50 (HCC-2998 colon): 305 nM
TGI (HCC-2998 colon): 1170 nM
GI50 (786-0 renal): 345 nM
TGI (786-0 renal): 1300 nM
GI50 (SK-MEL-5 melanoma): 178 nM
TGI (SK-MEL-5 melanoma): 344 nM
GI50 (MALME-3M melanoma): 224 nM
TGI (MALME-3M melanoma): 713 nM
GI50 (RXF 393 renal): 390 nM
TGI (RXF 393 renal): 1490 nM
GI50 (COLO 205 colon): 169 nM
TGI (COLO 205 colon): 361 nM
GI50 (SF-268 CNS): 441 nM
TGI (SF-268 CNS): 1530 nM
GI50 (NCI-H460 lung): 430 nM
TGI (NCI-H460 lung): 1450 nM
GI50 (MDA-MB-231 breast): 338 nM
TGI (MDA-MB-231 breast): 1260 nM
GI50 (UO-31 renal): 465 nM
TGI (UO-31 renal): 1620 nM
GI50 (LOX IMVI melanoma): 247 nM
TGI (LOX IMVI melanoma): 709 nM
GI50 (ACHN renal): 427 nM
TGI (ACHN renal): 1460 nM
GI50 (K-562 leukemia): 108 nM
TGI (K-562 leukemia): 447 nM
GI50 (HS 578T breast): 471 nM
TGI (HS 578T breast): 2990 nM
GI50 (SF-295 CNS): 261 nM
TGI (SF-295 CNS): 826 nM
GI50 (SNB-75 CNS): 489 nM
TGI (SNB-75 CNS): 1420 nM
GI50 (SW-620 colon): 338 nM
TGI (SW-620 colon): 1460 nM
GI50 (OVCAR-3 ovarian): 267 nM
TGI (OVCAR-3 ovarian): 792 nM
GI50 (CCRF-CEM leukemia): 189 nM
TGI (CCRF-CEM leukemia): 525 nM
GI50 (MCF7 breast): 322 nM
TGI (MCF7 breast): 1140 nM
GI50 (SF-539 CNS): 513 nM
TGI (SF-539 CNS): 1660 nM
GI50 (KM12 colon): 213 nM
TGI (KM12 colon): 575 nM
GI50 (PC-3 prostate): 240 nM
TGI (PC-3 prostate): 1020 nM
GI50 (SNB-19 CNS): 398 nM
TGI (SNB-19 CNS): 1540 nM
GI50 (A498 renal): 563 nM
TGI (A498 renal): 1540 nM
GI50 (HCT-116 colon): 272 nM
TGI (HCT-116 colon): 1240 nM
GI50 (A549 NSCLC): 1360 nM
TGI (A549 NSCLC): 3080 nM
GI50 (SK-OV-3 ovarian): 468 nM
TGI (SK-OV-3 ovarian): 1710 nM
GI50 (NCI-H23 lung): 267 nM
TGI (NCI-H23 lung): 1130 nM
GI50 (NCI/ADR-RES ovarian): 1510 nM
TGI (NCI/ADR-RES ovarian): 3230 nM
GI50 (NCI-H522 lung): 223 nM
TGI (NCI-H522 lung): 746 nM
GI50 (HOP-62 NSCLC): 473 nM
TGI (HOP-62 NSCLC): 1610 nM
GI50 (TK-10 renal): 352 nM
TGI (TK-10 renal): 1190 nM
GI50 (DU-145 prostate): 414 nM
TGI (DU-145 prostate): 1410 nM
GI50 (CAKI-1 renal): 83.8 nM
TGI (CAKI-1 renal): 639 nM
GI50 (UACC-62 melanoma): 302 nM
TGI (UACC-62 melanoma): 1320 nM
GI50 (UACC-257 melanoma): 370 nM
TGI (UACC-257 melanoma): 1150 nM
GI50 (HOP-92 NSCLC): 214 nM
TGI (HOP-92 NSCLC): 803 nM
